Data taken from patent publication US11324733B2, “Methods for improving memory and cognition and for treating memory and cognitive disorders” (Cavion, Inc., priority 2017, dated 2022).

System: AS mice (Ube3am−/p+ KO mice) with LTP deficits
Assay: LTP deficits in cognitively deficient (AS) mice; fEPSP recording in hippocampal slices after oral treatment
Format: in vivo
Protocol: For all behavioral and electrophysiology experiments female Ube3am−/p+ KO mice (i.e., AS mice) were crossed with wild-type males, to generate heterozygous AS mice and littermate controls in the F1 hybrid 12952-057BL/6 background. The AS mice have cognitive deficits, including long term potentiation (LTP) deficits.
Control mice (“wt”) were treated with vehicle while AS mice were treated with vehicle or MK-8998 (“CX”) at 30 mg/kg or at 60 mg/kg dose given orally twice per day in the morning and afternoon. Dosing was carried out for one week before testing, then behavioral tests were carried out on the animals over a 5-week period.
After the behavioural tests, animals remained under treatment until the animals were sacrificed one hour after the last drug administration. […] LTP was evoked using the 10 Theta burst protocol (10 trains of 4 stimuli at 100 Hz, 200 ms apart), performed at two-third of the maximum fEPSP. fEPSP sizes were recorded once per minute. Potentiation was measured as the normalized increase of the mean fEPSP slope for the duration of the baseline. […] Final LTP was determined over the last 10 min of the recording. […]
LTP was evoked using the 10 Theta burst protocol (10 trains of 4 stimuli at 100 Hz, 200 ms apart), performed at two-third of the maximum fEPSP. Final LTP was determined over the last 10 min of the recording. […]

CC(C)c1ccc(CC(=O)N[C@H](C)c2ccc(OCC(F)(F)F)cn2)cc1 [MK-8998]
P, post hoc Bonferroni multiple comparisons, AS Vehicle vs treated (LTP) (30 mg/kg): 0.01
P, post hoc Bonferroni multiple comparisons, AS Vehicle vs treated (LTP) (60 mg/kg): 0.02
